One assay addresses MOZ enzyme (Homo sapiens (Human), UniProt Q92794). Description: Moz biochemical assay (AlphaScreen histone H4 peptide acetylation).
A further assay relates to Cdc6 mRNA. Description: Bioassay 2: RT-qPCR of MOZ target genes in mouse embryonic fibroblasts. In kind it is cell-based. Particulars: 5 μM. The protocol:
Mouse embryonic fibroblasts are isolated from wild type or Moz heterozygous animals and cultured at 3% oxygen/5% carbon dioxide/92% nitrogen. Cells are plated at a density of 1,020 cells/cm^2 or 2,040 cells/cm^2 or 10,204 cells/cm^2. A reference value for MOZ inhibition is generated through comparison with cells with a complete null mutation of MOZ. The absence of a functional Moz gene leads to senescence in 7-14 days at 3% oxygen.
Cells are plated in triplicate at 2,040 cells/cm^2 in the presence of a test compound. Compounds are tested at 500 nM, 1 μM, 2 μM, 5 μM, 10 μM and 20 μM. Control compounds include those that have a similar structure but show no activity in biochemical assays. […] RT-qPCR is used to assay the levels of MOZ target genes Ink4a, ink4b, Arf, Cdc6, Cdca8, Cdca2, E2f2, Ezh2, Skp2 and Melk.

Assay [1] concerns Wild type pre B cells. Description: Bioassay 7: pre-B cell number dose response, wild type. In kind it is cell-based. The settings on record: in words. The protocol: Pre B cells are isolated from bone marrow according to the criterion: cell surface expression of B220, CD19, but not cKit or IgM. Pre-B cells are cultured on OP9 cells with IL7 in the presence of compounds at concentrations from 0.01 μM to 20 μM in vitro for 4 days. Cell number is then enumerated and an IC50 is calculated.

Assay [2] concerns Wild type pre B cells. Description: Bioassay 8: cell cycle analysis (DNA content and Ki67). It counts as cell-based. Particulars: 1 μM. Here is the method:
Pre B cells are isolated from bone marrow according to the criterion: cell surface expression of B220, CD19, but not cKit or IgM. Pre-B cells are cultured on OP9 cells with IL7 in the presence of compounds at various concentrations. The stages of the cell cycle in cultured pre-B cells with and without treatment is analysed by flow cytometry using a stain for DNA content combined with the cell cycle marker Ki67 to enumerate the proportion of cells in different phases of the cell cycle.

Assay [3] concerns Eμ-Myc pre-leukemia pro-B cells. Nature of the assay: Bioassay 5: pro-B cell colony formation in methylcellulose, Eμ-Myc. It counts as cell-based. The settings on record: 1 μM, Eμ-Myc pre-leukemia pro-B cells. Here is the method: (§1) Pro-B cells are purified by positive selection using antiCD19-magnetic beads and fluorescence activated cell sorting using the criterion: cell surface expression of B220, CD19 and cKit but not IgM. After purification, 25,000 pro-B cells are seeded onto 3.5 cm culture dishes plate containing methylcellulose (MethoCult M3630, STEM CELL technologies) for 7 days. After 7 days culture, colonies in which there were more than 50 cells are counted. Subsequently, 190,000 pro-B cells are replated into methylcellulose for another 7 days of culture, followed by enumeration.

The next assay relates to wild type pro-B cells. Nature of the assay: Bioassay 5: pro-B cell colony formation in methylcellulose, wild type. In kind it is cell-based. The protocol: as §1
Another assay deals with wild type pre-B cells. Nature of the assay: Bioassay 9: cell cycle analysis (DNA content and BrdU). It counts as cell-based. Particulars: 1 μM. The protocol: Pre B cells are isolated from bone marrow according to the criterion: cell surface expression of B220, CD19, but not cKit or IgM. Pre-B cells are cultured on OP9 cells with IL7 in the presence of compounds at various concentrations. The stages of the cell cycle in pre-B cells with and without treatment is analysed using flow cytometry to assay, using a stain for DNA content combined with BrdU to determine the proportion of cells in S phase.

In a further assay the test system is B cell lineage. Nature of the assay: Bioassay 10: effect on the B cell lineage in treated mice. In kind it is in vivo. Particulars: for numbers of pre B cells in the bone marrow: in words, daily I.P. injection; for immature B cells, percentage of WBC per femur / mature B cells, percentage of WBC per femur / pre-B cells, percentage of WBC per femur / pro-B cells, percentage of WBC per femur: wild type mice, 50 mg/kg I.P. daily. The protocol: Mice were treated with compounds at the dosage of 50 mg/kg by I.P injection. Compounds are prepared for injection as a slurry in 50% PEG400/H2O. The effect on the B cell lineage is determined by fluorescent cytometry using characteristic cell surface markers expressed at different stages of B cell development.

In a further assay the test system is INK4a and ARF null cells. Description: Bioassay 1 repeated in INK4a and ARF null cells. It counts as cell-based. Particulars: 1 μM, 2 μM, 5 μM, 10 μM. The protocol:
Cells are plated in triplicate cultures at 10,204 cells/cm^2 in the presence of a test compound. Compounds are tested at 500 nM, 1 μM, 2 μM, 5 μM, 10 μM and 20 μM. Control compounds include those that have a similar structure but show no activity in biochemical assays. After 48 hours, cells are passaged and counted, then replated at 10,204/cm^2. This procedure is continued for 336 hours. The total number of cells produced at each passage is then calculated and compared between treatment groups. […] Cells are analysed by flow cytometry for the absence of markers of apoptosis by staining with propidium iodide and FITC-conjugated annexin V. The level of DNA damaged is assessed by γH2A.X staining, a marker of DNA strand breaks.
The mechanism of action of these compounds, i.e. causing cell cycle arrest and senescence, was confirmed by repeating this assay using cells in which the INK4a/ARF pathways was inactivated by genetic deletion of a key exon common to both INK4a and the alternative splice product of the CDKN2a locus ARF.

MOZ enzyme, sequence (Q92794 whole entry, species assumed): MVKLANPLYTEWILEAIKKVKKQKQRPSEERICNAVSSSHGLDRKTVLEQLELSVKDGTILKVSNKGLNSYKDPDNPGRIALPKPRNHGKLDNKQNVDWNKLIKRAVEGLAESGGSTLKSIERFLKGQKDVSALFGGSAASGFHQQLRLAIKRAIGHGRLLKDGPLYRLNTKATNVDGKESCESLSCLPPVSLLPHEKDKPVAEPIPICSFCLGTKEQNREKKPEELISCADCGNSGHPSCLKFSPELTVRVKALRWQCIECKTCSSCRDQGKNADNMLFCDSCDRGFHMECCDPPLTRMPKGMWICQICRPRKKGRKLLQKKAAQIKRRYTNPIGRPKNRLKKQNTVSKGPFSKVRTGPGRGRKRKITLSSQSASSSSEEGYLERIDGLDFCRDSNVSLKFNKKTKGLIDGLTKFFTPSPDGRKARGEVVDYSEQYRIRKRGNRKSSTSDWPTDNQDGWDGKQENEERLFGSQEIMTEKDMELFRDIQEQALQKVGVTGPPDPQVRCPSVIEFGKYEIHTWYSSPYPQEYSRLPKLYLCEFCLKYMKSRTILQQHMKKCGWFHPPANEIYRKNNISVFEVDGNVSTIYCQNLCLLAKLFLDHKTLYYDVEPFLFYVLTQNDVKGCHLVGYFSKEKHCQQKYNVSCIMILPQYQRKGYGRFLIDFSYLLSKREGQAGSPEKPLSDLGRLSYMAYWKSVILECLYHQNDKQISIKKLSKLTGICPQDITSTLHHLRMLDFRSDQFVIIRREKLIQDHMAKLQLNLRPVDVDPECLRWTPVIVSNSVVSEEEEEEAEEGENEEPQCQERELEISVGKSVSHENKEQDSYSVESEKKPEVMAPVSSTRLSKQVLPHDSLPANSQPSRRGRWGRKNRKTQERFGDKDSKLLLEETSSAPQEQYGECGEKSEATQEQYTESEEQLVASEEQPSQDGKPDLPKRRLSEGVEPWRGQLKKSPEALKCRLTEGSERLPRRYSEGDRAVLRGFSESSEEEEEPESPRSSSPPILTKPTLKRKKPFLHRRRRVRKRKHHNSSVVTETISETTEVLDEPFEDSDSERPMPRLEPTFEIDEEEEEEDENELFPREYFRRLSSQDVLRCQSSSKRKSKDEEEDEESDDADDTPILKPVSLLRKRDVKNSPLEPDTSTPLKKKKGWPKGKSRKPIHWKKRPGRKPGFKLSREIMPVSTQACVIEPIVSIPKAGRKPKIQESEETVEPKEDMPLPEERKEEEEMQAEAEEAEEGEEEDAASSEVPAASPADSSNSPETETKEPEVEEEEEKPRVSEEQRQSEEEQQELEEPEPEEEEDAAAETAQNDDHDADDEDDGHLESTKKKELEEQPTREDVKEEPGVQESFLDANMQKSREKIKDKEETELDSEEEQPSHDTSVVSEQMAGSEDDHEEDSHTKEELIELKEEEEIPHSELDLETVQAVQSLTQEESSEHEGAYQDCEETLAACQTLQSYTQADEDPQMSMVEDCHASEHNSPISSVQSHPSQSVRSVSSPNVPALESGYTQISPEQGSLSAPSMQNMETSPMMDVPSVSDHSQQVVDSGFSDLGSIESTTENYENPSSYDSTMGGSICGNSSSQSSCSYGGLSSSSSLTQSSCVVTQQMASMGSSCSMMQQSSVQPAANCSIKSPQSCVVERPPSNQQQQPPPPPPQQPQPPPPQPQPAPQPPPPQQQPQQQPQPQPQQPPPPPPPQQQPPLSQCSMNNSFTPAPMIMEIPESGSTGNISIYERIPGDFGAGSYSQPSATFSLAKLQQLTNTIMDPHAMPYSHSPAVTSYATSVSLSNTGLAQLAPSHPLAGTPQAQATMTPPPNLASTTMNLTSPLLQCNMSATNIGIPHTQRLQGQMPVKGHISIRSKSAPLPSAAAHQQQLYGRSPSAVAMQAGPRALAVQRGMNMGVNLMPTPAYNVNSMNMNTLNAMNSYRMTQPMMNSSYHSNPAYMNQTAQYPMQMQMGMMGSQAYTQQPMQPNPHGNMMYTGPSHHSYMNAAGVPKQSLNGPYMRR

Broadly, the IC50 is the concentration that gives 50% inhibition. Low values mean greater potency in that assay, high ones weaker potency in that assay. On MOZ enzyme, `O=C(NNS(=O)(=O)c1ccccc1)c1cc(-c2ccccc2)cc(Cl)c1F` [Compound 35] yielded an IC50 of 82 nM.
The same measure, in the same setting: with `Cc1cc(-c2ccccc2)c(F)c(C(=O)NNS(=O)(=O)c2ccccc2)c1F` [Compound 154] the figure was 10 nM; with `O=C(NNS(=O)(=O)c1ccccc1F)c1cccc(OCC2CC2)c1` [Compound 90], 116 nM; with `COc1ccc(-c2cccc(C(=O)NNS(=O)(=O)c3ccccc3)c2)cc1` [Compound 26], 40000 nM.
Still for that read-out and setting: with `O=C(NNS(=O)(=O)c1ccccc1)c1cccc(-c2ccccc2)c1` [Compound 2] the figure was 287 nM; with `Cc1cccc(C(=O)NNS(=O)(=O)c2ccc3ccccc3c2)c1F` [Compound 4], 195 nM; with `O=C(NNS(=O)(=O)c1ccccc1)c1cc(-c2ccccc2)ccc1F` [Compound 157], 17 nM.
Same read-out and setting: with `O=S(=O)(NNCc1cccc(-c2cccc(Cl)c2)c1)c1ccccc1` [Compound 147] the figure was 91000 nM; with `O=C(NNS(=O)(=O)c1ccccc1)c1cccc(-c2cc[nH]n2)c1` [Compound 7], 7440 nM.
`Cc1cccc(C(=O)NNS(=O)(=O)c2ccc3ccccc3c2)c1` [Compound 148] gave an IC50 against MOZ enzyme of 1770 nM.
The same measure, in the same setting: with `O=C(NNS(=O)(=O)c1ccccc1)c1ccnc(-c2ccccc2)c1` [Compound 106] the figure was 19000 nM.
In the case of `O=C(NNS(=O)(=O)c1ccccc1F)c1cc(F)cc(-n2cccn2)c1` [Compound 64], in the assay on Cdc6 mRNA, the “CDC6 mRNA % control” value is recorded as 60.9%.
The compound `CC(C)c1cccc(C(=O)NNS(=O)(=O)c2ccc3ccccc3c2)c1` [Compound 3] showed an IC50 at MOZ enzyme of 7800 nM.
On the same count and under the same terms, with `O=C(NNS(=O)(=O)c1ccccc1)c1cccc(-c2ccccc2Cl)c1` [Compound 34] the figure was 8020 nM.
Consider `O=C(NNS(=O)(=O)c1ccccc1)c1cc(-c2ccc(F)cc2)ccc1F` [Compound 133], for which the half-maximal inhibitory concentration (IC50) against MOZ enzyme was determined as 839 nM.
On the same count and under the same terms, the figure for `O=C(NNS(=O)(=O)c1ccccc1)c1cccc(I)c1` [Compound 6] is 2040 nM; for `O=C(NNS(=O)(=O)c1ccccc1)c1cccc(-c2cccc(F)c2)c1` [Compound 30] it is 721 nM.
Regarding `Cc1cc(-c2ncccn2)cc(C(=O)NNS(=O)(=O)c2ccccc2)c1F` [Compound 53], the “CDC6 mRNA % control” value with Cdc6 mRNA is reported as 62.8%.
With `O=C(NNS(=O)(=O)c1ccccc1)c1cncc(-c2ccccc2)c1` [Compound 109], the IC50 at MOZ enzyme stood at 21300 nM.
Take `O=C(NNS(=O)(=O)c1ccccc1)c1cc(-c2ccnnc2)ccc1F` [Compound 108]: in the assay with Wild type pre B cells [1], the “effect on pre B cell proliferation” value is “has no effect”. In the assay with Wild type pre B cells [2] (cultured for 4 days), the “cells in G0” value is 10.8%, the “cells in G1” value stood at 53.7%, the “cells in G2/M” value was found to be 12.1% and the “cells in S” value was 23.6%. Moreover, in the assay on Wild type pre B cells [2] (cultured for 6 days), the “cells in G0” value worked out at 8.6%, the “cells in G1” value worked out at 62.0%, the “cells in G2/M” value is 8.5% and the “cells in S” value is 14.7%. The compound also came in with a colony number in [3] (primary colonies) of 180.5. In assay [3] (secondary colony formation), the “colony number, secondary colony formation” value is recorded as 78. The colony number in the assay with wild type pro-B cells (1 μM, wild type pro-B cells, primary colonies) was 245.125. For the same compound, the “colony number, secondary colony formation” value with wild type pro-B cells (1 μM, wild type pro-B cells, secondary colony formation) was determined as 77. In addition, in the assay on wild type pro-B cells (in words, compared to vehicle), the colony formation result was “inactive”. Besides, in the assay on wild type pre-B cells, the “cells in G0/G1 (BrdU)” value stood at 44.2, the “cells in G2/M (BrdU)” value worked out at 5.2 and the “cells in S (BrdU)” value worked out at 46.2.
In the case of `O=C(NNS(=O)(=O)c1ccccc1)c1cccc(-c2ccc(Cl)cc2)c1` [Compound 32], inhibition at MOZ enzyme was half-maximal at 25800 nM (IC50).
On the same count and under the same terms, the figure for `COc1ccccc1-c1cccc(C(=O)NNS(=O)(=O)c2ccccc2)c1` [Compound 27] is 11200 nM.
On MOZ enzyme, `Cc1cc(-n2cccn2)c(F)c(C(=O)NNS(=O)(=O)c2ccccc2)c1F` [Compound 155] came in with an IC50 of 71 nM.
The same measure, in the same setting: with `O=C(NNS(=O)(=O)c1ccccc1)c1cccc(-c2ccccc2F)c1` [Compound 29] the figure was 548 nM.
For `O=C(NNS(=O)(=O)c1ccccc1F)c1cc(F)cc(-c2ccccn2)c1` [Compound 46], in the assay on B cell lineage, the “numbers of pre B cells in the bone marrow” value was “markedly reduced numbers of pre B cells in the bone marrow”; the “immature B cells, percentage of WBC per femur” value was 3.33%; the “mature B cells, percentage of WBC per femur” value amounted to 3.65%; the “pre-B cells, percentage of WBC per femur” value was 10.59%. Moreover, in the assay with B cell lineage, the “pro-B cells, percentage of WBC per femur” value turned out to be 1.14%.
`O=C(NNS(=O)(=O)c1ccccc1)c1cccc(-c2ccc(F)cc2)c1` [Compound 25] showed an IC50 against MOZ enzyme of 3830 nM.
On the same count and under the same terms, with `O=C(NNS(=O)(=O)c1ccccc1)c1cccc(-c2ccccc2)c1F` [Compound 33] the figure was 270 nM.
`O=C(NNS(=O)(=O)c1ccccc1)c1cc(-c2cccs2)cc(Cl)c1F` [Compound 37]: on MOZ enzyme, inhibition was half-maximal at 85400 nM (IC50). Moreover, the “inhibition of cell proliferation” value with INK4a and ARF null cells is listed as “no inhibition of cell proliferation was detected”.
Turning to `CCOc1cc(C)cc(C(=O)NNS(=O)(=O)c2ccccc2F)c1` [Compound 137], in the assay on Cdc6 mRNA, the “CDC6 mRNA % control” value came out at 67.5%. In addition, in the assay with B cell lineage, the “numbers of pre B cells in the bone marrow” value is on record as “markedly reduced numbers of pre B cells in the bone marrow”; the “immature B cells, percentage of WBC per femur” value amounted to 3.92%; the “mature B cells, percentage of WBC per femur” value amounted to 3.16%; the “pre-B cells, percentage of WBC per femur” value was determined as 12.71%. The “pro-B cells, percentage of WBC per femur” value with B cell lineage is 1.01%.
`N#Cc1cccc(-c2cccc(C(=O)NNS(=O)(=O)c3ccccc3)c2)c1` [Compound 31] gave an IC50 at MOZ enzyme of 8550 nM.
Still for that read-out and setting: with `O=C(NNS(=O)(=O)c1ccc2ccccc2c1)c1cccc(-c2ccccc2)c1` [Compound 1] the figure was 2950 nM.
Same read-out and setting: with `COc1cccc(-c2cccc(C(=O)NNS(=O)(=O)c3ccccc3)c2)c1` [Compound 28] the figure was 3220 nM; with `O=C(NNS(=O)(=O)c1ccccc1)c1cccc(-c2ccsc2)c1` [Compound 8], 162 nM.
Still for that read-out and setting: with `O=C(NNS(=O)(=O)c1ccccc1)c1cccc(-c2ccccc2)n1` [Compound 116] the figure was 16600 nM; with `O=C(NNS(=O)(=O)c1ccccc1)c1cccc(-c2cccnc2)c1` [Compound 98], 13100 nM.
With `O=C(NNS(=O)(=O)c1ccccc1)c1cccc(-c2cccs2)c1` [Compound 14], at MOZ enzyme, half-maximal inhibition (IC50) was put at 470 nM.
